pIC50: −log10 of the molar value. Read-outs that look alike come from different tables or passages of the source.
Columns and labels:
[1] = test system: HCV subgenomic replicon; experiment: Anti-HCV activity in HCV subgenomic replicon system (Huh7 cells, firefly luciferase); conditions: for Therapeutic Index in HCV replicon system CC50/IC50: Huh7 HCV replicon system
Experimental: The antiviral (anti-HCV) activity of epirubicin and its derivatives was tested in vitro in cell culture model using the HCV subgenomic replicon stably transfected into Huh7 cells line (clone BM4.5) (Gao et al., J. Virol. 2001) and/or in Huh7 cells replicating selectable subgenomic HCV replicon carrying firefly luciferase gene (Vrolijk et al. J. Virol. Method. 2003).
The BM4.5 Huh7 cells were grown in cell culture medium in presence of varying concentrations of epirubicin hydrochloride (BNE00) or epirubicin derivatives. The media and drug were changed everyday for 5 days. After 5 days of treatment cells were lysed and total RNA extracted as described (Gao et al., J. Virol. 2001). The isolated RNA was then assayed for presence of HCV replication by Northern Blot analysis, using a HCV probe targeting the NS5B region of HCV. […] The cell lines were treated everyday with different epirubicin hydrochloride (BNE00) or epirubicin derivatives concentrations for 5 days and at the end of treatment, the RNA from the treated cells were isolated. The total RNA was then probed with a HCV specific probe using Northern blot analysis to detect the HCV RNA. The resulting blot was then exposed to phosphorimager densitometry and the viral replication quantified.
For Huh7 cells replicating selectable subgenomic HCV replicon carrying firefly luciferase gene cells were treated with epirubicin hydrochloride (BNE00) or epirubicin derivatives as described above for BM4,5 cells. Following the treatment, cells were lysed and firefly luciferase activity was measured using Luminoskan device (Thermolabsystem) as described (Vrolijk et al. J. Virol. Methods. 2003).

[2] = test system: HCV; experiment: Inhibition of HCV replication in chronically HCV-infected human PBMC (RT-PCR); conditions: for pIC50: read-out: Anti-HCV activity in PBMC IC50; for IC90: read-out: Anti-HCV activity in PBMC IC90
Experimental: In addition, the inhibition of HCV replication by epirubicin hydrochloride (BNE00), N3′-acetylepirubicin (BNE01), and N3′,O4′,O14-triacetylepirubicin (BNE02) were analyzed in chronically HCV-infected human peripheral blood monocyte cells (PBMC) cultures which was performed as follows. PBMC were isolated from HCV-infected patients blood by Ficoll Pague centrifugation placed on Petri dishes and cultured in 10% FCS, RPMI medium containing PHA (3 μg/ml) according to Laskus et al. (J Infect Dis. 2000) and enriched with known concentrations of BNE00, BNE01, BNE02 in standard conditions (37° C., 5% CO2). On day 5 and 14 of the culture the cells were collected and after extraction, HCV RNA was […] estimated by real-time Reverse Transcriptase Polymerase Chain Reaction using SYBR Green system (FIG. 3). Semiquantitative estimation of HCV RNA was also performed by Reverse Transcriptase Polymerase Chain Reaction, and visualized after electrophoresis through a 1% agarose gel, using ethidium bromide staining (FIG. 4).

[3] = in vivo; conditions: both, BALB/C, mouse, ip
Experimental: (§1) The in vivo determination of acute toxicity of drugs was performed in mice according to “OECD Guidelines for Testing of Chemicals” (Guideline No 401). The study was performed in BALB/C mice and the test substance was administrated intraperitoneally in dose of 1; 5 and 10 mg/kg b.w. Ten males and 10 females were used for each dose. A control group receiving only solvent was run concurrently.

[4] = in vitro; conditions: human
[5] = Cytotoxic activity in Huh7 cells replicating the HCV replicon; conditions: human
[6] = test system: PBMC
[7] = test system: BALB/C mice; experiment: In vivo acute toxicity in mice (OECD Guideline No 401)
Experimental: as §1

[8] = test system: Huh7 cells; experiment: Cytotoxic activity in Huh7 cells replicating the HCV replicon; conditions: read-out: Cytotoxic activity in Huh7 Cells, CC50; Huh7 cells replicating subgenomic HCV replicon carrying firefly luciferase gene
[9] = Hepatitis C virus, PBMC, in Homo sapiens
[10] = chronically HCV-infected human PBMC
[11] = read-out: Anti-HCV activity in HCV replicon system IC50, Huh7 cells, subgenomic HCV replicon carrying firefly luciferase gene

SMILES | pIC50 ([1]; Hepatitis C virus, Huh-7, read-out: Anti-HCV activity in HCV replicon system IC50) | pIC50 ([1]; Hepatitis C virus, Huh-7, read-out: anti-HCV IC50) | Therapeutic Index in HCV replicon system CC50/IC50 [1] | pIC50 [2, 9] | IC90 [2, 9] | Therapeutic Index in PBMC TI50 CC50/IC50 [2, 10] | LD50 [3] | CC50 [4] | CC90 [4] | CC50 [5] | pIC50 [2, 10] | IC90 [2, 10] | CC50 [6] | CC90 [6] | pIC50 [1, 11] | LD50 (in vivo acute toxicity) ([7]; BALB/C mice, intraperitoneal) | fold lower acute toxicity compared with epirubicin hydrochloride (BNE00) ([7]; LD50 ratio, mice) | CC50 [8]
COc1cccc2c1C(=O)c1c(O)c3c(c(O)c1C2=O)C[C@@](O)(C(=O)CO)C[C@@H]3O[C@H]1C[C@H](N)[C@@H](O)[C@H](C)O1 [BNE00, 7-O-(3′-amino-2′,3′,6′-trideoxy-α,β-L-arabinohexopyranosyl)-adriamycinone, reference compound] | 8.70 | 8.40 to 8.70 | 1.5 | 6.49 | 460 nM | 5.62 | 26.2 mg/kg | 1800 nM | 2400 nM | 3 nM | – | – | – | – | – | – | – | –
COc1cccc2c1C(=O)c1c(O)c3c(c(O)c1C2=O)C[C@@](O)(C(=O)CO)C[C@@H]3O[C@H]1C[C@@H](NC(C)=O)[C@H](O)[C@H](C)O1 [BNE01, N3′-acetyl-4′-epidoxorubicin] | – | – | – | – | – | 91.7 | – | – | – | – | 6.44 | 470 nM | 33000 nM | 91000 nM | – | – | – | –
COc1cccc2c1C(=O)c1c(O)c3c(c(O)c1C2=O)CC(O)(C(=O)COC(C)=O)CC3OC1CC(NC(C)=O)C(OC(C)=O)C(C)O1 (stereo not shown) [BNE02, N3′, O4′, O14-triacetyl-4′-epidoxorubicin] | – | – | 10 | – | – | >490.0 | – | – | – | – | > 7.00 | 500 nM | 49000 nM | 120000 nM | 6.30 | 1355.08 mg/kg b.w. | 52 fold | 5000 nM
COc1cccc2c1C(=O)c1c(O)c3c(c(O)c1C2=O)CC(O)(C(=O)CO)CC3OC1CC(N(C)C)C(O)C(C)O1 (stereo not shown) [BNE06, 3′-N,N-Dimethyl-4′-epidoxorubicin] | – | – | 3.0 | – | – | – | – | – | – | – | – | – | – | – | 7.74 | – | – | 60 nM

From patent US8173610B2 (priority 2005, dated 2012)
